Patent US7166617B2, “Cyclic amide derivatives” (Mitsubishi Pharma Corporation, priority 2000, dated 2007)
Counter-ions that a name gives are not always drawn.

Target: T1, sigma 2 receptor (Rattus norvegicus, UniProt Q5U3Y7)
T1 construct: A crude P2 membrane fraction was prepared from livers of male rats (Sprague-Dawley rats); from tissue; host or cells: rat liver (male Sprague-Dawley), crude P2 membrane fraction
T1 sequence (Q5U3Y7 1-176): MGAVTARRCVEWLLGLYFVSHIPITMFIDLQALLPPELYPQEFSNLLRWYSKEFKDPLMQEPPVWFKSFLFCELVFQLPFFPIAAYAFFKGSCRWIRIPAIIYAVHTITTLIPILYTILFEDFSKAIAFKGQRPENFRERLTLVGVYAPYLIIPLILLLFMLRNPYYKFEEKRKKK
Assay: Sigma 2-selective receptor binding inhibition test ([3H]-DTG, rat liver P2 membrane fraction)
Conditions: [3H]-DTG 1 nM, 500 nM pentazocine, P2 fraction of livers of male Sprague-Dawley rats, 25° C., 2 hours
Method: Sigma Binding Site-Binding Inhibition Test
A crude P2 membrane fraction was prepared from livers of male rats (Sprague-Dawley rats) according to a method described in the literature (X. He, et al., J. Med. Chem., 36, pp. 566–571, 1993). In the presence of 500 nM pentazocine and a control compound at various concentrations (haloperidol, 10^−10 to 10^−6 M) or a test ligand at various concentrations (10^−10 to 10^−5 M) together with a radioactive ligand, the P2 fraction (0.4 ml) was incubated in 50 mM Tris-HCl (pH 7.4, final volume: 0.5 ml) at 25° C. for 2 hours. The reaction mixture was rapidly filtered on a Brandel cell harvester using Whatman GF/B filter paper, which was immersed beforehand in 0.5% polyethyleneimine for 1 hour, to stop the reaction. The filter paper was washed 4 times with the ice cooled incubation buffer. The non-specific results were evaluated by using 1 μM haloperidol, and the scintillation analysis and the curve analysis were performed as described above.

Structure (SMILES)	Ki
O=C(CN1CCC(CN2Cc3ccccc3C2=O)CC1)C1CCCCC1 [Example 84, 2-[[1-(2-Cyclohexyl-2-oxoethyl)piperidin-4-yl]methyl]isoindolin-1-one fumarate]	3.4 nM
CC(C)(C)C(=O)CN1CCC(CN2Cc3ccccc3C2=O)CC1 [Example 24, 2-[[1-(3,3-Dimethyl-2-oxobutyl)piperidin-4-yl]methyl]isoindolin-1-one hydrochloride]	13 nM
O=C(CN1CCC(CN2Cc3ccccc3C2=O)CC1)N1CCCCC1 [Example 50, 2-[[1-[2-Oxo-2-(piperidin-1-yl)ethyl]piperidin-4-yl]methyl]isoindolin-1-one fumarate]	14 nM

Second part, the compound after the results:

Ki	Structure (SMILES)
16 nM	O=C(CN1CCC(CN2Cc3cc(F)ccc3C2=O)CC1)c1ccc(F)cc1 [Example 154, 5-Fluoro-2-[[1-[2-(4-fluorophenyl)-2-oxoethyl]piperidin-4-yl]methyl]isoindolin-1-one hydrochloride]
25 nM	COc1ccc2c(c1)CN(CC1CCN(CCc3ccc(F)cc3)CC1)C2=O [Example 159, 5-Methoxy-2-[1-[2-(4-fluorophenyl)ethyl]piperidin-4-ylmethyl]isoindolin-1-one fumarate]
3.1 nM	O=C(CN1CCC(CN2Cc3cc(Cl)ccc3C2=O)CC1)c1ccc(F)cc1 [Example 8, 5-Chloro-2-[[1-[2-(4-fluorophenyl)-2-oxoethyl]piperidin-4-yl]methyl]isoindolin-1-one hydrochloride]
22 nM	O=C(CCCN1CCC(CN2Cc3ccccc3C2=O)CC1)c1ccc(F)cc1 [Example 31, 2-[[1-[4-(4-Fluorophenyl)-4-oxobutyl]piperidin-4-yl]methyl]isoindolin-1-one hydrochloride]
10 nM	O=C1c2ccc(Br)cc2CN1CC1CCN(CCc2ccc(F)cc2)CC1 [Example 160, 5-Bromo-2-[1-[2-(4-fluorophenyl)ethyl]piperidin-4-ylmethyl]isoindolin-1-one fumarate]
22 nM	O=C(CN1CCC(CN2Cc3ccsc3C2=O)CC1)c1ccc(F)cc1 [Example 22, 5-[[1-[2-(4-Fluorophenyl)-2-oxoethyl]piperidin-4-yl]methyl]-4,5-dihydro-6H-thieno[2,3-c]pyrrol-6-one hydrochloride]
2.8 nM	O=C(CN1CCC(CN2Cc3c(Br)cccc3C2=O)CC1)c1ccc(F)cc1 [Example 2, 4-Bromo-2-[[1-[2-(4-fluorophenyl)-2-oxoethyl]piperidin-4-yl]methyl]isoindolin-1-one hydrochloride]

Same assay, conditions: test compound 10 nM; [3H]-DTG 1 nM, 500 nM pentazocine, rat liver P2 fraction

Inhibitory rate against sigma 2 (%, 10 nM)	Structure (SMILES)
68%	COc1ccccc1SCCN1CCC(CN2Cc3ccccc3C2=O)CC1.O=C(O)/C=C/C(=O)O [Example 110]

Same assay, conditions: test compound 10 nM; [3H]-DTG 1 nM, 500 nM pentazocine, rat liver P2 fraction; read-out: Inhibitory rate against sigma 2 (%, 10 nM)

Structure (SMILES)	inhibition at 0.01 µM
O=C1c2ccccc2CN1CC1CCN(CCc2ccccc2C(F)(F)F)CC1 [Example 96, 2-[[1-[2-(2-Trifluoromethylphenyl)ethyl]piperidin-4-yl]methyl]-isoindolin-1-one fumarate]	66%
O=C1c2ccccc2CN1CC1CCN(CCOc2cccc(F)c2)CC1 [Example 118, 2-[[1-[2-(3-Fluorophenoxy)ethyl]piperidin-4-yl]methyl]isoindolin-1-one fumarate]	50%
O=C1c2ccccc2CN1CC1CCN(CC(=O)N2CCc3ccccc32)CC1 [Example 51, 2-[[1-[2-(Indolin-1-yl)-2-oxoethyl]piperidin-4-yl]methyl]isoindolin-1-one fumarate]	74%
COc1ccccc1CCN1CCC(CN2Cc3cc(C#N)ccc3C2=O)CC1 [Example 170, 5-Cyano-2-[1-[2-(2-methoxyphenyl)ethyl]piperidin-4-ylmethyl]isoindolin-1-one fumarate]	52%
O=C(CN1CCC(CN2Cc3ccccc3C2=O)CC1)C1CCCCC1 [Example 84, 2-[[1-(2-Cyclohexyl-2-oxoethyl)piperidin-4-yl]methyl]isoindolin-1-one fumarate]	58%
O=C(CN1CCC(CN2Cc3ccccc3C2=O)CC1)N1CCCCC1 [Example 50, 2-[[1-[2-Oxo-2-(piperidin-1-yl)ethyl]piperidin-4-yl]methyl]isoindolin-1-one fumarate]	52%
COc1ccccc1CCN1CCC(CN2Cc3cc(Br)ccc3C2=O)CC1 [Example 167, 2-[1-[2-(2-Methoxyphenyl)ethyl]piperidin-4-ylmethyl]-5-bromoisoindolin-1-one hydrochloride]	62%

Next, values leading:

inhibition at 0.01 µM	Structure (SMILES)
55%	O=C1c2ccc(Br)cc2CN1CC1CCN(CCOc2ccc(F)cc2)CC1 [Example 177, 2-[1-[2-(4-Fluorophenyloxy)ethyl]piperidin-4-ylmethyl]-5-bromoisoindolin-1-one hydrochloride]
55%	COc1ccccc1C(=O)CN1CCC(CN2Cc3ccccc3C2=O)CC1 [Example 72, 2-[[1-[2-(2-Methoxyphenyl)-2-oxoethyl]piperidin-4-yl]methyl]isoindolin-1-one fumarate]
80%	Cc1ccccc1C(=O)CN1CCC(CN2Cc3ccccc3C2=O)CC1 [Example 77, 2-[[1-[2-(2-Tolyl)-2-oxoethyl]piperidin-4-yl]methyl]isoindolin-1-one fumarate]
70%	O=C1c2cccc(F)c2CN1CC1CCN(CCOc2ccc(F)cc2)CC1 [Example 181, 4-Fluoro-2-[1-[2-(4-fluorophenoxy)ethyl]piperidin-4-ylmethyl]isoindolin-1-one fumarate]
